One experiment deals with T1, recombinant human Polq polymerase domain (residues 1792-2590) (Homo sapiens, UniProt O75417).
T1 sequence (O75417 1792-2590): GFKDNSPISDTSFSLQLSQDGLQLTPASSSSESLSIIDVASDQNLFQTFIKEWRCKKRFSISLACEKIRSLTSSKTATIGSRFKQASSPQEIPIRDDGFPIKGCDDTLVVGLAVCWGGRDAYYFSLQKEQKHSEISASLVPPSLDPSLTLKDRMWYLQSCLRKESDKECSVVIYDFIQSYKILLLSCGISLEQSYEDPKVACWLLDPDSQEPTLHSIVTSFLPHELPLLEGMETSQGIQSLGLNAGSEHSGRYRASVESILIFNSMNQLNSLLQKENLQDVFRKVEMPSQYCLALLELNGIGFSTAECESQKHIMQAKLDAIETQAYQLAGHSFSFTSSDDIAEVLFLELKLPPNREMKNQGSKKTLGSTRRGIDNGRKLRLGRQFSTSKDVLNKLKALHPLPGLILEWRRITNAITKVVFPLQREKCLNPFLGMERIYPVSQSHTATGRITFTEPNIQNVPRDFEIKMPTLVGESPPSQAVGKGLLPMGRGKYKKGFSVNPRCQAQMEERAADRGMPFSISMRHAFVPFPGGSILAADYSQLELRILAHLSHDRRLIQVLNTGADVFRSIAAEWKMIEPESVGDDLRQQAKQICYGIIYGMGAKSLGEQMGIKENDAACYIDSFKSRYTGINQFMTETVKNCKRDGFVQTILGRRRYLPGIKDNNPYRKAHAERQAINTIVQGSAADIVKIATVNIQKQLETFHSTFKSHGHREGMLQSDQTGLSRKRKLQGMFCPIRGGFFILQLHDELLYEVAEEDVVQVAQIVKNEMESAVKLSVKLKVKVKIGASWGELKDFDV
Put plainly: Cy5 fluorescence assay of Polq polymerase enzymatic activity. The class given is biochemical. Particulars: 5 nM Polq polymerase domain, 60 nM primer-template, 50 uM dNTPs, 37° C., 18 min, 2.5% DMSO, triplicate; read-out: Polq IC50. As to the method: The following Cy5 fluorescence assay was used to measure the ability of compounds to inhibit Polq polymerase domain in vitro. The fluorescent based assay was performed as follows: 60 nM of the pre-annealed primer-template containing a 5′ Cy5 fluorophore conjugated template strand (SEQ ID NO 6: 5′-/5Cy5/ […] GGACAG-3′), a downstream complementary oligo conjugated with a 3′ Blackhole quencher (SEQ ID NO 7: 5′-CTAAGCTCACAGTG/3IAbRQSp/-3′) and a primer strand (SEQ ID NO 8: 5′-CTGTCCTGCATGATG-3′) was mixed with 50 uM 2′-deoxyribonucleoside triphosphates (dNTPs), 0.1 mg/mL Bovine serum albumin (BSA), 0.01% NP-40, 10% glycerol, 1 mM dithiothreitol (DTT), 10 mM MgCl2, 25 mM TrisHCl pH 7.8 in the presence of 2.5% DMSO with or without various concentrations (7-point dilution series) of Polq small molecule inhibitors represented by Formula I at 37° C. in a volume of 40 μL.
As to `[2H]C([2H])([2H])N(C(=O)Cc1c(-c2cn[nH]c2)cc(C(F)(F)F)cc1C(F)(F)F)c1ccc(F)cc1` [Example 23, N-(4-fluorophenyl)-N-(methyl-d3)-2-[2-(1H-pyrazol-4-yl)-4,6-bis(trifluoromethyl)phenyl]acetamide], the IC50 – broadly, the concentration that gives 50% inhibition – is 46.8 nM.

On to `N#CCN(C(=O)Oc1c(-n2cc[nH]c2=O)cc(C(F)(F)F)cc1C(F)(F)F)c1ccc(F)cc1` [Example 20, 2-(2-oxo-2,3-dihydro-1H-imidazol-1-yl)-4,6-bis(trifluoromethyl)phenyl N-(cyanomethyl)-N-(4-fluorophenyl)carbamate], for which the IC50 amounted to 439 nM.

Still in this experiment, the particulars now being: Polq IC50, 5 nM Polq polymerase domain, 60 nM primer-template, 50 uM dNTPs, 37° C., 18 min, 2.5% DMSO, triplicate.
In the case of `[2H]C([2H])([2H])N(C(=O)Oc1c(-c2cn(CC(O)CNC)nn2)cc(C(F)(F)F)cc1C(F)(F)F)c1ccc(F)cc1` (stereo not shown) [Example 29, 2-{1-[2-hydroxy-3-(methylamino)propyl]-1H-1,2,3-triazol-4-yl}-4,6-bis(trifluoromethyl)phenyl N-(4-fluorophenyl)-N-(methyl-d3)carbamate], the IC50 came out at 3.4 nM.

Take `CN(C(=O)Oc1c(-c2cn(CCCCC(=O)Nc3cccc4c3C(=O)N(C3CCC(=O)NC3=O)C4=O)nn2)cc(C(F)(F)F)cc1C(F)(F)F)c1ccc(F)cc1` (stereo not shown) [Example 3, 2-(1-(5-((2-(2,6-dioxopiperidin-3-yl)-1,3-dioxoisoindolin-4-yl)amino)-5-oxopentyl)-1H-1,2,3-triazol-4-yl)-4,6-bis(trifluoromethyl)phenyl (4-fluorophenyl) (methyl)carbamate]: the half-inhibitory concentration (IC50) stood at 3.3 nM.

Regarding `[2H]C([2H])([2H])N(C(=O)Oc1c(-c2cn(C3C[C@@H](O)[C@@H](O)C3)nn2)cc(C(F)(F)F)cc1C(F)(F)F)c1ccc(F)cc1` (mixture of isomers) [Example 12, 2-{1-[(3R,4S)-3,4-dihydroxycyclopentyl]-1H-1,2,3-triazol-4-yl}-4,6-bis(trifluoromethyl)phenyl N-(4-fluorophenyl)-(methyl-d3)carbamate (Racemate)], the IC50 is 2.2 nM.

Regarding `CN(C(=O)Oc1c(-c2cn(CCCCCCCCC(=O)Nc3cccc4c3C(=O)N(C3CCC(=O)NC3=O)C4=O)nn2)cc(C(F)(F)F)cc1C(F)(F)F)c1ccc(F)cc1` (stereo not shown) [Example 7, 2-(1-(9-((2-(2,6-dioxopiperidin-3-yl)-1,3-dioxoisoindolin-4-yl)amino)-9-oxononyl)-1H-1,2,3-triazol-4-yl)-4,6-bis(trifluoromethyl)phenyl (4-fluorophenyl) (methyl)carbamate], the IC50 worked out at 5.8 nM.

As to `[2H]C([2H])([2H])N(C(=O)Oc1c(-c2nnco2)cc(C(F)(F)F)cc1C(F)(F)F)c1ccc(F)cc1` [Example 31, 2-(1,3,4-oxadiazol-2-yl)-4,6-bis(trifluoromethyl)phenyl N-(4-fluorophenyl)-N-(methyl-d3)carbamate], the IC50 turned out to be 5.6 nM.

For `[2H]C([2H])([2H])N(C(=O)Oc1c(-n2cc[nH]c2=O)cc(C(F)(F)F)cc1C(F)(F)F)c1ccc(F)c(Cl)c1F` [Example 9, 2-(2-oxo-2,3-dihydro-1H-imidazol-1-yl)-4,6-bis(trifluoromethyl)phenyl 3-chloro-2,4-difluorophenyl(methyl-d3)carbamate], the IC50 was 2.4 nM.

Consider `[2H]C([2H])([2H])N(C(=O)Oc1c(-c2cn(CC(O)CN(C)C)nn2)cc(C(F)(F)F)cc1C(F)(F)F)c1ccc(F)cc1` (stereo not shown) [Example 30, 2-{1-[3-(dimethylamino)-2-hydroxypropyl]-1H-1,2,3-triazol-4-yl}-4,6-bis(trifluoromethyl)phenyl N-(4-fluorophenyl)-N-(methyl-d3)carbamate], for which the IC50 stood at 1.6 nM.

As to `[2H]C([2H])([2H])N(C(=O)Oc1c(-c2cn(CC3(O)CNC3)nn2)cc(C(F)(F)F)cc1C(F)(F)F)c1ccc(F)c(Cl)c1F` [Example 16, 2-{1-[(3-hydroxyazetidin-3-yl)methyl]-1H-1,2,3-triazol-4-yl}-4,6-bis(trifluoromethyl)phenyl N-(3-chloro-2,4-difluorophenyl)-N-(methyl-d3)carbamate], the half-maximal inhibitory concentration (IC50) worked out at 1.5 nM.

The record behind these values is patent US20260317313A1, “DNA Polymerase Theta Inhibitors Containing Non-Saturated 5-Membered Heterocyclic Rings and Use Thereof” (Thomas Jefferson University, priority 2022, published 2026).
